Laboratory results taken from patent US6046231A, “Use of 4'-bromoflavone in a cancer chemopreventative composition and method” (The Board of Trustees of the University of Illinois, priority 1999, dated 2000).
Where two headings read alike, the source gives them in different places.

Legend:
[1] = test system: Hepa 1c1c7 cells; test: Hepa 1c1c7 cell viability (cytotoxicity); format: cell-based, murine; details: for IC50: read-out: IC50, concentration for 50% inhibition of cell viability
[2] = test system: quinone reductase (QR), mutant Hepa 1c1c7 cells (TAOBP^r cl and BP^r cl); test: QR induction in mutant Hepa 1c1c7 cell lines (mono-/bifunctional inducer); format: cell-based, murine; details: wild-type vs mutant cells
Protocol: Determination of Quinone Reductase Activity in Cell Cultures. To determine the potency of inducers, Hepa 1c1c7 murine hepatoma cells as described in the Gerhauser publication were placed in 96-well plates at a density of 1×10^4 cells/ml in 200 μl of medium. After a preincubation period of 24 hr, the media were decanted and 190 μl fresh media were added to each well. Ten (10) μl test agents dissolved in 10% DMSO (final concentration of DMSO is 0.5%) with a serial 2-fold dilutions were introduced to each well, and the plates were incubated for an additional 48 hours. Specific QR activity was determined by measuring the NADPH-dependent menadiol-mediated reduction of 3-(4, 5-dimethylthiazo-2-yl)-2,5-diphenyltetrazolium bromide to blue formazan formed per mg protein per minute. Protein was determined in an identical set of test plates by staining with crystal violet. […] Induction of QR activity was calculated by comparing the QR specific activity of agent-treated cells with that of solvent-treated cells, and a plot of ratio was generated. […]
Induction of Quinone Reductase in Hepa 1c1c7 Cells. […] Induction of QR activity was calculated by comparing the QR specific activity of agent-treated cells with the QR specific activity of solvent-treated cells, and a plot of ratios was generated. […]

[3] = test system: GST Yb (μ class); test: Western blot of GST Yb (μ-type) expression in H4IIE cells; format: cell-based, rat; details: for GST Yb (μ) induction: H4IIE cells
Protocol: Western Blot Analysis Glutathione S-transferase Expression. Cultured H4IIE rat hepatoma cells were treated with test agent with various concentrations or various time points. […] Cells were harvested using SDS lysis buffer (20 mM Tris-Cl, pH 6.8, containing 0.4% SDS (w/v), 4% glycerol, 0.24 M β-mercaptoethanol, and 0.5% bromphenol) and the lysates were boiled for 5 minutes, then stored at -20° C. An aliquot of lysate was used for protein determination using a bicichoninic acid protein assay kit with BSA as a standard. Equivalent amounts of protein were electrophoresed by SDS-PAGE on precast 12.5% Tris-glycine acrylamide gels (Novex, San Diego, Calif.), then transferred to polyvinylidene difluoride (PDVF) membranes. Nonspecific binding sites were blocked with 10% nonfat dry milk and blotting was performed with goat polyclonal antirat GSTYa (α class) IgG or antirat, GSTYb (μ class) IgG and analyzed by alkaline phosphatase-conjugated antigoat IgG secondary antibody (Oxford Biomed Research, Inc.) and quantified using an AP 20 Alkaline Phosphatase Kit detection system (Oxford Biomed Research, Inc.).
Induction of Expression of Glutathione S-transferase Ya (α-type) and Yb (μ-type) in Cell Cultures. […] To date, the superfamily of mammalian cytosolic GST isozymes has been defined genetically to consist of four classes; α, μ, π, and θ, which differ in tissue-specificexpression and distribution, as well as substrate specificity. […] Cultured H4IIE cells were treated either with 10 μM of 4'-BF (FIG. 7B) or sulforaphane for 0, 2, 4, 8, 16, 24, and 48 hours for a time-dependent study, or with 0.16, 0.8, 4, 10, 20, and 50 μM of 4'-BF (FIG. 7A) or sulforaphane for 24 hr for a dose-dependent study (FIG. 7A). The expressions of two major detoxification isoforms of GSTs (GST Ya: α-type, and GST Yb: μ-type) mediated by 4'-BF or sulforaphane were investigated in H4EII rat hepatoma cells using Western blotting technique.

[4] = test system: cytochrome P4501A1; test: Inhibition of TCDD-induced EROD activity; format: biochemical
[5] = test system: Salmonella typhimurium strain TM677; test: Antimutagenic assay, DMBA-induced mutagenesis; format: cell-based; details: S. typhimurium TM677; listed as 4'-BF
Protocol: A dose and time dependent induction of two major detoxification isoforms of GST (α form and μ form) mediated by 4'-BF has been studied in H4IIE rat hepatoma cells. In order to determine a possible mechanism of induction, the QR mRNA expression was tested using a RT-PCR technique and the induction patterns using HepG2 cells transfected with QR-chloramphenical acetyltransferase plasmid constructs containing various portions of 5'-region of the QR gene were analyzed. The antimutagenic activity of 4'-BF was tested in an antimutagenic assay against DMBA-induced mutagenesis with Salmonella typhimurium strain TM677. The chemopreventive efficacy of 4'-BF also was evaluated in a DMBA-induced mammary tumor carcinogenesis model in Sprague Dawley rats.

O=c1cc(-c2ccc(Br)cc2)oc2ccccc12 [4'-Bromoflavone]
IC50 ([1]; Hepa 1c1c7 cells): ≥ 166 µM
IC50 ([1]; Mus musculus, Hepa-1c1c7, Hepa 1c1c7 cells): > 166 µM
times less toxic than sulforaphane ([1]; compared to sulforaphane): about 15 times
inducer type (mono-/bifunctional) [2]: bifunctional inducer
maximum induction time, GST Yb ([3]; 10 μM, 0-48 h): 16 to 24 h
maximum induction concentration, GST Yb ([3]; 0.16-50 μM, 24 h): 10 to 20 µM
GST Yb (μ) induction [3]: effectively induced
GST Yb (μ) induction ([3]; listed as 4'-BF): induced by 4'-BF in a time, dose-dependent manner
inhibition of TCDD-induced EROD activity [4]: significantly inhibit
inhibition of DMBA-induced mutagenesis [5]: strongly inhibited
